Consider nine substances from US5840867A, “Aptamer analogs specific for biomolecules” (Gilead Sciences, Inc., priority 1994, dated 1998).

pKi: −log10 of the molar value. Where only a bound is given, the exact number is not on record here.

Data set [1] has as its system thrombin. The data set can be described thus: Clotting time for thrombin-catalyzed conversion of fibrinogen to fibrin. In kind it is biochemical. As to conditions: 7-mer at 20 μM; thrombin 10 nM; thrombin alone 24 sec. On the procedure: Clotting time for the thrombin-catalyzed conversion of fibrinogen (2.0 mg/ml in selection buffer) to fibrin at 37° C. was measured using a precision coagulation timer apparatus (Becton-Dickinson, Cat. Nos. 64015, 64019, 64020). Thrombin (10 nM) incubated with fibrinogen alone clotted in 40 sec, thrombin incubated with fibrinogen and P1 nuclease (Boehringer-Mannheim, Indianapolis, Ind.) clotted in 39 sec, thrombin incubated with fibrinogen and aptamer clone #5 (200 nM) clotted in 115 sec, and thrombin incubated with fibrinogen, clone #5 (200 nM) and P1 nuclease clotted in 40 sec. All incubations were carried out at 37° C. using reagents prewarmed to 37° C. Aptamer DNA or, when present, P1 nuclease, was added to the fibrinogen solution prior to addition of thrombin.
Inhibition of thrombin activity was studied using a consensus-related sequence 7-mer, 5' GGTTGGG 3' (SEQ ID NO:15), or a control 7-mer with the same base composition but different sequence (5' GGGGGTT 3' ) (SEQ ID NO:16). Clotting times were measured using the timer apparatus as above. The thrombin clotting time in this experiment was 24 sec using thrombin alone (10 nM), 26 sec with thrombin and the control sequence at 20 μM and 38 sec with thrombin plus the consensus sequence at 20 μM, indicating specificity for thrombin inhibition at the level of the 7-mer.

Another data set deals with rat blood coagulation. The data set can be described thus: APTT test after injection in rats. The settings on record: 5 minute time point. Type of data set: in vivo. As for the experimental part:
(§1) Thus, the 15-mer in blood withdrawn from rats 5 minutes post-injection was able to inhibit exogenously added human thrombin. […] The half-life of the 15-mer in rats appears to be about 5 minutes or less.

Data set [2] concerns thrombin. The data set can be described thus: Extent of thrombin inhibition with varying DNA concentration. In kind it is biochemical. The text has this:
Independent verification of the Ki for the nonmodified 15-mer was made by determining the extent of thrombin inhibition with varying DNA concentration.

A further data set relates to human thrombin. Briefly: Thrombin clotting-time assay on rat plasma after injection. In kind it is in vivo. The settings on record: rats, injected through catheter. On the procedure:
(§2) A 15-mer single-stranded deoxynucleotide, 5' GGTTGGTGTGGTTGG 3' (SEQ ID NO:19), identified as a consensus sequence from 30 thrombin aptamer clones as described in Example 4 above was used. Young adult rats of mixed gender and strain were used. The animals were anesthetized and a diester of the 15-mer was injected through a catheter in 200 μl volumes (in 20 mM phosphate buffer, pH 7.4, 0.15M NaCl) at two concentrations, so that the final concentration of 15-mer in the blood was about 0.5 and 5.0 μM respectively, although the exact concentration depends on the volume of distribution which is unknown for this oligonucleotide. These values are 10 to 100 times greater than the human in vitro Kd value. No heparin was used for catheterization.
(§3) At 0, 5, 20 and 60 minutes, blood was withdrawn from the animals (approx. 500 μl aliquots) and transferred into tubes containing 0.1 volume citrate buffer and centrifuged. Rat plasma was removed and tested in a thrombin clotting-time assay. Six animals were used at each concentration,and three animals were injected with the control carrier solution containing no 15-mer.

Data set [3] has as its system thrombin. Briefly: Steady-state inhibition kinetics by clotting time assay (Ki). Type of data set: biochemical. The settings on record: constant thrombin, varying fibrinogen concentration. On the procedure:
The inhibition constants (Ki s) and mode of inhibition of the aptamer analogs were determined through steady-state inhibition kinetics using a clotting time assay with constant thrombin concentration and varying the fibrinogen concentration in the presence of aptamer, control DNA, or no DNA. […] The data is consistent with a non-competitive mode of inhibition.

A further data set is described as follows: Half-life in rats. In kind it is in vivo, rat. As to conditions: injected through catheter. On the procedure: as §2, §3, §1

In the data set on thrombin [1], “5' GGGGGTT 3' (chemistry not given here) [reference compound]” yielded a Clotting time of 26 s.
In the case of “5' GGTTGGG 3' (chemistry not given here)”, the Clotting time in the data set with thrombin [1] came out at 38 s.
Consider 5' GGTTGGTGTGGTTGG 3', for which the APTT test entry with rat blood coagulation is recorded as “inhibited rat blood coagulation”. In the data set with thrombin [2], the “concentration giving 50% inhibition of thrombin activity” value was “approximately the same concentration as the derived Ki”. For the same substance, the “clotting time of rat plasma” value in the data set on human thrombin (about 0.5 and 5.0 μM in blood, 5 minute time point) is on record as “prolonged clotting time”. Besides, the “activity in clotting-time assay of rat plasma” value in the data set with human thrombin (20 minutes) was “Little or no activity”. In addition, the pKi (as a rule, the negative decadic logarithm of the Ki, by convention in mol/L) in the data set with thrombin [3] was 7.70. Besides, the half-life – broadly, how long it takes for the measured level to halve – in “Half-life in rats” is at most 5 min.
In the data set with thrombin [3], G*G*T*T*G*G*T*G*T*G*G*T*T*G*G had a pKi of 6.55.
In the data set on thrombin [3], “GG(dU)TGGTGTGG(dU)TGG (DNA GGNTGGTGTGGNTGG) [15-mer thrombin aptamer analog with uracil (dU) in place of thymine]” had a pKi of 7.10.
Turning to “GGTTGG(dU)G(dU)GGTTGG (DNA GGTTGGNGNGGTTGG; dU in place of thymine) [15-mer thrombin aptamer analog with uracil (dU) in place of thymine]”, the pKi with thrombin [3] was 7.82.
Same read-out and setting: for GGTTGGTGTGGTT*G*G the value was 7.40.
Substance “GGTTGGTGTGGTTGG#G#T (DNA GGTTGGTGTGGTTGGGT; MEA linkages, chemistry not fully specified) [closely related 17-mer thrombin aptamer analog; # indicates a MEA linkage]” showed a pKi in the data set with thrombin [3] of 7.46.
In the data set on thrombin [3], “GGTTGGTGTGGTU'GG (DNA GGTTGGTGTGGTNGG; 5-pentynyluracil, further chemistry not given here) [15-mer thrombin aptamer analog; U' indicates 5-pentynyluracil]” gave a negative logarithm of the Ki (pKi) of 7.70.
